Reference: US11390604B2 (Hoffmann-La Roche Inc., priority 2019, dated 2022)
Where a name gives a salt, the structure may show the parent alone. Read-outs that look alike come from different tables or passages of the source.

System: Acinetobacter baumannii ATCC 17961
Test: Antimicrobial susceptibility testing: 90% growth inhibitory concentration (IC90) determination
Type: cell-based
Summary of the method: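 Broth microdilution in Iso-Sensitest medium, twofold series (e.g. 50 to 0.097 μM final), ~5×10^5 CFU/ml inoculum, 35±2 °C. OD600 read every 20 min over 16 h. IC90 derived from growth inhibition during logarithmic phase.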

[1] = ATCC17961, Acinetobacter baumannii ATCC 17961, Iso-Sensitest broth, read-out: ATCC 17961 IC90

| IC90 [1] [nM] | SMILES | IC90 (Acinetobacter baumannii, ATCC17961, read-out: ATCC 17961 IC90, Acinetobacter baumannii ATCC 17961, Iso-Sensitest broth) [nM] |
| --- | --- | --- |
| 1420 | Cn1c(-c2cn(CCn3cccn3)nc2C(F)(F)F)cnc1C(=O)Nc1ccc(C(=O)N2CCN(C(=O)C3CCNCC3)CC2)c(Cl)c1 [Example 23, 5-(1-(2-(1H-pyrazol-1-yl)ethyl)-3-(trifluoromethyl)-1H-pyrazol-4-yl)-N-(3-chloro-4-(4-(piperidine-4-carbonyl)piperazine-1-carbonyl)phenyl)-1-methyl-1H-imidazole-2-carboxamide formate] | – |
| 506 | Cn1c(-c2cn(CC#N)nc2C(F)(F)F)cnc1C(=O)Nc1ccc(C(=O)N2CCN(C(=O)C3CCNCC3)CC2)c(Cl)c1 [Example 61, N-[3-Chloro-4-[4-(piperidine-4-carbonyl)piperazine-1-carbonyl]phenyl]-5-[1-(cyanomethyl)-3-(trifluoromethyl)pyrazol-4-yl]-1-methyl-imidazole-2-carboxamide Formate] | – |
| 288 | C#CCn1cc(-c2cnc(C(=O)Nc3ccc(C(=O)NC4C5CN(C(=O)C6CCNCC6)CC54)c(Cl)c3)n2C)c(C(F)(F)F)n1 (stereo not shown) [Example 245, N-(3-chloro-4-((3-(piperidine-4-carbonyl)-3-azabicyclo[3.1.0]hexan-6-yl)carbamoyl)phenyl)-1-methyl-5-(1-(prop-2-yn-1-yl)-3-(trifluoromethyl)-1H-pyrazol-4-yl)-1H-imidazole-2-carboxamide formate] | – |
| 122 | C#CCn1cc(-c2cnc(C(=O)Nc3ccc(C(=O)N4CCN(C(=O)NC5CNC5)CC4)c(Cl)c3)n2C)c(C(F)(F)F)n1 [Example 51, N-(Azetidin-3-yl)-4-(2-chloro-4-(1-methyl-5-(1-(prop-2-yn-1-yl)-3-(trifluoromethyl)-1H-pyrazol-4-yl)-1H-imidazole-2-carboxamido)benzoyl)piperazine-1-carboxamide Hydrochloride] | – |
| 1000 | CCc1cc(NC(=O)c2ncc(-c3cn(CC(F)F)nc3C(F)(F)F)n2C)ccc1C(=O)N1CCN(C(=O)C2CNC2)CC1 [Example 153, N-[4-[4-(azetidine-3-carbonyl)piperazine-1-carbonyl]-3-ethylphenyl]-5-[1-(2,2-difluoroethyl)-3-(trifluoromethyl)pyrazol-4-yl]-1-methylimidazole-2-carboxamide;formic acid] | – |
| 306 | Cn1c(-c2cn(CCCl)nc2C(F)(F)F)cnc1C(=O)Nc1ccc(C(=O)N2CCN(C(=O)NC3CNC3)CC2)c(Cl)c1 [Example 251, N-(azetidin-3-yl)-4-[2-chloro-4-[[5-[1-(2-chloroethyl)-3-(trifluoromethyl)pyrazol-4-yl]-1-methyl-imidazole-2-carbonyl]amino]benzoyl]pipera-zine-1-carboxamide] | – |
| 478 | C#CCn1cc(-c2cnc(C(=O)Nc3ccc(C(=O)NC)c(Cl)c3)n2C)c(C(F)(F)F)n1 [Example 43, N-(3-chloro-4-(methylcarbamoyl)phenyl)-1-methyl-5-(1-(prop-2-yn-1-yl)-3-(trifluoromethyl)-1H-pyrazol-4-yl)-1H-imidazole-2-carboxamide] | – |
| 550 | Cn1c(-c2cn(CC(F)(F)F)nc2C(F)(F)F)cnc1C(=O)Nc1ccc(C(=O)N2CCN(C(=O)NC3CNC3)CC2)c(Cl)c1 [Example 149, N-(azetidin-3-yl)-4-[2-chloro-4-[[1-methyl-5-[1-(2,2,2-trifluoroethyl)-3-(trifluoromethyl)pyrazol-4-yl]imidazole-2-carbonyl]amino]benzoyl]piperazine-1-carboxamide] | – |
| 845 | CCc1cc(NC(=O)c2ncc(-c3cn(CC#N)nc3C(F)(F)F)n2C)ccc1C(=O)N1CCN(C(=O)N2CC[C@H](C)[C@H](N)C2)CC1 (racemic) [Example 137, 5-[1-(cyanomethyl)-3-(trifluoromethyl)pyrazol-4-yl]-N-[3-ethyl-4-[4-[rac-(3R,4R)-3-amino-4-methylpiperidine-1-carbonyl]piperazine-1-carbonyl]phenyl]-1-methylimidazole-2-carboxamide;formic acid] | – |
| 741 | CCc1cc(NC(=O)c2ncc(-c3cn(CC#N)nc3C(F)(F)F)n2C)ccc1C(=O)N1CCN(C(=O)N2CCC(C)(N)CC2)CC1 [Example 136, N-[4-[4-(4-amino-4-methylpiperidine-1-carbonyl)piperazine-1-carbonyl]-3-ethylphenyl]-5-[1-(cyanomethyl)-3-(trifluoromethyl)pyrazol-4-yl]-1-methylimidazole-2-carboxamide;formic acid] | – |
| 1700 | CCc1cc(NC(=O)c2ncc(-c3cn(CC#N)nc3C(F)(F)F)n2C)ccc1C(=O)N1CCN(C(=O)C2CNC2)CC1 [Example 131, N-[4-[4-(azetidine-3-carbonyl)piperazine-1-carbonyl]-3-ethylphenyl]-5-[1-(cyanomethyl)-3-(trifluoromethyl)pyrazol-4-yl]-1-methylimidazole-2-carboxamide;formic acid] | – |
| 320 | C#CC(C)n1cc(-c2cnc(C(=O)Nc3ccc(C(=O)N4CCN(C(=O)C5CCNCC5)CC4)c(Cl)c3)n2C)c(C(F)(F)F)n1 (stereo not shown) [Example 9, 5-(1-(but-3-yn-2-yl)-3-(trifluoromethyl)-1H-pyrazol-4-yl)-N-(3-chloro-4-(4-(piperidine-4-carbonyl)piperazine-1-carbonyl)phenyl)-1-methyl-1H-imidazole-2-carboxamide hydrochloride] | – |
| 1940 | Cn1cc(-c2cnc(C(=O)Nc3ccc(C(=O)N4CCN(C(=O)[C@@H]5C[C@@H](O)CN5)CC4)c(Cl)c3)n2C)c(C(F)(F)F)n1 [Example 55, N-[3-Chloro-4-[4-[(2S,4R)-4-hydroxypyrrolidine-2-carbonyl]piperazine-1-carbonyl]phenyl]-1-methyl-5-[1-methyl-3-(trifluoromethyl)pyrazol-4-yl]imidazole-2-carboxamide] | – |
| 1490 | CNC(=O)Cn1cc(-c2cnc(C(=O)Nc3ccc(C(=O)N4CCN(C(=O)C5CCNCC5)CC4)c(Cl)c3)n2C)c(C(F)(F)F)n1 [Example 28, N-(3-chloro-4-(4-(piperidine-4-carbonyl)piperazine-l-carbonyl)phenyl)-1-methyl-5-(1-(2-(methylamino)-2-oxoethyl)-3-(trifluoromethyl)-1H-pyrazol-4-yl)-1H-imidazole-2-carboxamide formate] | – |
| 403 | Cn1c(-c2cn(C3CC3)nc2C(F)(F)F)cnc1C(=O)Nc1ccc(C(=O)N2CCN(C(=O)NCC3(O)CCNCC3)CC2)c(Cl)c1 [Example 320, 4-(2-chloro-4-(5-(1-cyclopropyl-3-(trifluoromethyl)-1H-pyrazol-4-yl)-1-methyl-1H-imidazole-2-carboxamido)benzoyl)-N-((4-hydroxypiperidin-4-yl)methyl)piperazine-1-carboxamide formate] | – |
| 419 | COCC#CCn1cc(-c2cnc(C(=O)Nc3ccc(C(=O)N4CCN(C(=O)C5CCNCC5)CC4)c(Cl)c3)n2C)c(C(F)(F)F)n1 [Example 18, N-(3-chloro-4-(4-(piperidine-4-carbonyl)piperazine-1-carbonyl)phenyl)-5-(1-(4-methoxybut-2-yn-1-yl)-3-(trifluoromethyl)-1H-pyrazol-4-yl)-1-methyl-1H-imidazole-2-carboxamide hydrochloride] | – |
| 1170 | CCc1cc(NC(=O)c2ncc(-c3cn(CC(F)F)nc3C(F)(F)F)n2C)ccc1C(=O)N1CCN(C(=O)C2CCN(C)CC2)CC1 [Example 152, 5-[1-(2,2-difluoroethyl)-3-(trifluoromethyl)pyrazol-4-yl]-N-[3-ethyl-4-[4-(1-methylpiperidine-4-carbonyl)piperazine-1-carbonyl]phenyl]-1-methylimidazole-2-carboxamide] | – |
| 486 | Cn1c(-c2cn(CC#N)nc2C(F)(F)F)cnc1C(=O)Nc1ccc(C(=O)N[C@H]2CC[C@@H](NC(=O)[C@H]3C[C@H](N)C3)CC2)c(Cl)c1 [Example 372, rac-N-(4-(((1S,4s)-4-((1r,3R)-3-aminocyclobutane-1-carboxamido)cyclohexyl)car-bamoyl)-3-chlorophenyl)-5-(1-(cyanomethyl)-3-(trifluoromethyl)-1H-pyrazol-4-yl)-1-methyl-1H-imidazole-2-carboxamide 2,2,2-trifluoroacetate] | – |
| 385 | C/C=C/Cn1cc(-c2cnc(C(=O)Nc3ccc(C(=O)N4CCN(C(=O)C5CCNCC5)CC4)c(Cl)c3)n2C)c(C(F)(F)F)n1 [Example 312, (E)-5-(1-(but-2-en-1-yl)-3-(trifluoromethyl)-1H-pyrazol-4-yl)-N-(3-chloro-4-(4-(piperidine-4-carbonyl)piperazine-1-carbonyl)phenyl)-1-methyl-1H-imidazole-2-carboxamide hydrochloride] | – |
| 289 | C=CCn1cc(-c2cnc(C(=O)Nc3ccc(C(=O)N4CCN(C(=O)NC5CNC5)CC4)c(Cl)c3)n2C)c(C(F)(F)F)n1 [Example 147, N-(azetidin-3-yl)-4-[2-chloro-4-[[1-methyl-5-[1-prop-2-enyl-3-(trifluoromethyl)pyrazol-4-yl]imidazole-2-carbonyl]amino]benzoyl]piperazine-1-carboxamide] | – |
| 428 | C#CCn1cc(-c2cnc(C(=O)Nc3ccc(C(=O)NCCOC[C@H](C)N)c(Cl)c3)n2C)c(C(F)(F)F)n1 [Example 47, (S)-N-(4-((2-(2-aminopropoxy)ethyl)carbamoyl)-3-chlorophenyl)-1-methyl-5-(1-(prop-2-yn-1-yl)-3-(trifluoromethyl)-1H-pyrazol-4-yl)-1H-imidazole-2-carboxamide 2,2,2-trifluoroacetate] | – |
| – | Cn1c(-c2cn(C3CC3)nc2C(F)(F)F)cnc1C(=O)Nc1ccc(C(=O)N2CCN(C(=O)N[C@@H]3C[C@H](N)C3(C)C)CC2)c(Cl)c1 [Example 266, N-[(1R,3S)-3-amino-2,2-dimethylcyclobutyl]-4-[2-chloro-4-[[5-[1-cyclopropyl-3-(trifluoromethyl)pyrazol-4-yl]-1-methylimidazole-2-carbonyl]amino]benzoyl]pipera-zine-1-carboxamide;formic acid] | 330 |
